The text below walks through data of patent publication US10508077B2 (FORMA Therapeutics, Inc., priority 2015, dated 2019).

A value given as a limit tells only on which side of the number the result lay.

What is called IC50 is the concentration at which inhibition is half-maximal.

The target in this test is T1, Full length human recombinant HDAC8 protein (Homo sapiens, UniProt Q9BY41).
T1 construct: Full length human recombinant HDAC8 protein was expressed in baculoviral system; made in house
T1 sequence (Q9BY41 1-377): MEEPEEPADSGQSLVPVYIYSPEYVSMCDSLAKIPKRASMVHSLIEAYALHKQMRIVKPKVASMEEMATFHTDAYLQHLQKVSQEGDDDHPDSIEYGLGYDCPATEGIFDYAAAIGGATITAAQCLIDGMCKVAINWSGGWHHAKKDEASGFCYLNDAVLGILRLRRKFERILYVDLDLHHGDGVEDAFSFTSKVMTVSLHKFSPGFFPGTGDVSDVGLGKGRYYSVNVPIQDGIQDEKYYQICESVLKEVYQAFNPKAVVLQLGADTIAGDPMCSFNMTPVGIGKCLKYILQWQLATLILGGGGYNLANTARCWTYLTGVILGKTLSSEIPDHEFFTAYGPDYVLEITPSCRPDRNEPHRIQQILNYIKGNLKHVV
Kind of test: In vitro histone deacetylase assay: enzymatic HDAC8 assay, electrophoretic mobility shift. The class given is biochemical. Particulars: substrate RHKK(Ac)-NH2, 1 nM enzyme, compounds listed under IC50 range headings. The procedure, abridged:
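Baculovirus-expressed full-length human HDAC8 (1 nM) deacetylated 2 µM fluorescent RHKK(Ac)-NH2 peptide in pH 7.5 HEPES, 1% DMSO, at 25 °C, with 12 compound concentrations at 3× spacing. SDS-quenched; product and substrate resolved by microfluidic electrophoresis, P/(S+P) converted to percent inhibition, and IC50 obtained by 4-parameter fit.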
For `Cn1ccnc1S(=O)(=O)NC1CCN(c2ccccc2C=CC(=O)NO)CC1` [Example I-230, (E)-N-hydroxy-3-(2-(4-((1-methyl-1H-imidazole)-2-sulfonamido)-piperidin-1-yl)phenyl)acrylamide], the IC50 was less than 1000 nM.

In the case of `O=C(/C=C/c1ccccc1N1CCC(NS(=O)(=O)c2ccc3c(c2)OCCO3)CC1)NO` [Example I-231, (E)-3-(2-(4-((2,3-dihydrobenzo[b][1,4]dioxine)-6-sulfonamido)piperidin-1-yl)phenyl)-N-hydroxyacrylamide], the IC50 is less than 1000 nM.

Consider `O=C(/C=C/c1ccccc1N1CCC(NS(=O)(=O)c2cccc3cnccc23)CC1)NO` [Example I-232, (E)-N-hydroxy-3-(2-(4-(isoquinoline-5-sulfonamido)piperidin-1-yl)phenyl)acrylamide], for which the IC50 is less than 1000 nM.

For `COc1ccc(S(=O)(=O)NC2CCN(c3ccccc3/C=C/C(=O)NO)CC2)cc1OC` [Example I-233], the IC50 is less than 1000 nM.

Take `O=C(/C=C/c1ccccc1N1CCC(NS(=O)(=O)c2ccc(OC(F)F)cc2)CC1)NO` [Example I-234, (E)-3-(2-(4-((4-(difluoromethoxy)phenyl)sulfonamido)piperidin-1-yl)phenyl)-N-hydroxyacrylamide]: the concentration for half-maximal inhibition (IC50) was less than 1000 nM.

Regarding `O=C(/C=C/c1ccccc1N1CCC(NS(=O)(=O)Cc2cccc(F)c2)CC1)NO` [Example I-235, (E)-3-(2-(4-(((3-fluorophenyl)methyl)sul-fonamido)piperidin-1-yl)phenyl)-N-hydroxyacrylamide], the half-maximal inhibitory concentration (IC50) was less than 1000 nM.

In the case of `O=C(/C=C/c1ccccc1N1CCC(NS(=O)(=O)c2ccc3c(c2)NC(=O)CO3)CC1)NO` [Example I-236, (E)-N-hydroxy-3-(2-(4-((3-oxo-3,4-dihydro-2H-benzo[b][1,4]oxazine)-6-sulfonamido)piperidin-1-yl)phenyl)acrylamide], the 50% inhibitory concentration (IC50) was less than 1000 nM.

`Cn1cnc(S(=O)(=O)NC2CCN(c3ccccc3/C=C/C(=O)NO)CC2)c1` [Example I-237, (E)-N-hydroxy-3-(2-(4-((1-methyl-1H-imidazole)-4-sulfonamido)piperidin-1-yl)phenyl)acrylamide]: the half-inhibitory concentration (IC50) is less than 1000 nM.

For `COc1ccccc1S(=O)(=O)NC1CCN(c2ccccc2/C=C/C(=O)NO)CC1` [Example I-238, (E)-N-hydroxy-3-(2-(4-((2-methoxyphenyl)sulfon-amido)piperidin-1-yl)phenyl)acrylamide], the concentration for half-maximal inhibition (IC50) was less than 1000 nM.

With `O=C(/C=C/c1ccccc1N1CCC(NS(=O)(=O)Cc2ccc(Cl)cc2F)CC1)NO` [Example I-239, (E)-3-(2-(4-(((4-chloro-2-fluorophenyl)methyl)sul-fonamido)piperidin-1-yl)phenyl)-N-hydroxyacrylamide], the 50% inhibitory concentration (IC50) is less than 1000 nM.

Take `O=C(/C=C/c1ccccc1N1CCC(NS(=O)(=O)c2ccc(CNC(=O)c3ccccc3)s2)CC1)NO` [Example I-240, (E)-N-((5-(N-(1-(2-(3-(hydroxyamino)-3-oxoprop-1-en-1-yl)phenyl)piperidin-4-yl)sulfamoyl)thiophen-2-yl)methyl)benzamide]: the IC50 was less than 1000 nM.

Consider `O=C(/C=C/c1ccccc1N1CCC(NS(=O)(=O)C2CC2)CC1)NO` [Example I-241], for which the IC50 was less than 1000 nM.

As for `COc1ccc(OC)c(S(=O)(=O)NC2CCN(c3ccccc3/C=C/C(=O)NO)CC2)c1` [Example I-242, (E)-3-(2-(4-((2,5-dimethoxyphenyl)sulfon-amido)piperidin-1-yl)phenyl)-N-hydroxyacrylamide], the IC50 is less than 1000 nM.

With `Cc1nn(C)c(Cl)c1S(=O)(=O)N1CCN(c2ccccc2/C=C/C(=O)NO)CC1` [Example I-243, (E)-3-(2-(4-((5-chloro-1,3-dimethyl-1H-pyrazol-4-yl)sulfonyl)piperazin-1-yl)phenyl)-N-hydroxyacrylamide], the IC50 was less than 1000 nM.

In the case of `Cn1ccc(S(=O)(=O)N2CCN(c3ccccc3/C=C/C(=O)NO)CC2)n1` [Example I-244, (E)-N-hydroxy-3-(2-(4-((1-methyl-1H-pyrazol-3-yl)sulfonyl)piperazin-1-yl)phenyl)acrylamide], the 50% inhibitory concentration (IC50) was less than 1000 nM.

`Cc1noc(C)c1S(=O)(=O)N1CCN(c2ccccc2/C=C/C(=O)NO)CC1` [Example I-245, (E)-3-(2-(4-((3,5-dimethylisoxazol-4-yl)sulfonyl)piperazin-1-yl)phenyl)-N-hydroxyacrylamide]: the IC50 was less than 1000 nM.

Turning to `Cc1ccccc1S(=O)(=O)N1CCN(c2ccccc2/C=C/C(=O)NO)CC1` [Example I-247, (E)-N-hydroxy-3-(2-(4-(o-tolylsulfonyl)piperazin-1-yl)phenyl)acrylamide], the IC50 was less than 1000 nM.

Take `O=C(/C=C/c1ccccc1N1CCN(S(=O)(=O)c2ccc(C(F)(F)F)nc2)CC1)NO` [Example I-248, (E)-N-hydroxy-3-(2-(4-((6-(trifluoromethyl)pyridin-3-yl)sulfonyl)piperazin-1-yl)phenyl)acrylamide]: the half-inhibitory concentration (IC50) was less than 1000 nM.

As to `CC(C)S(=O)(=O)N1CCN(c2ccccc2/C=C/C(=O)NO)CC1` [Example I-249, (E)-N-hydroxy-3-(2-(4-(isopropylsulfonyl)piper-azine-1-yl)phenyl)acrylamide], the IC50 is less than 1000 nM.

`O=C(/C=C/c1ccccc1N1CCN(S(=O)(=O)C2CCCC2)CC1)NO` [Example I-250]: the IC50 is less than 1000 nM.

Take `O=C(/C=C/c1ccccc1N1CCN(S(=O)(=O)Cc2ccc(F)cc2)CC1)NO` [Example I-251, (E)-3-(2-(4-((4-fluorobenzyl)sulfonyl)pi-perazin-1-yl)phenyl)-N-hydroxyacrylamide]: the half-inhibitory concentration (IC50) is less than 1000 nM.

Turning to `O=C(/C=C/c1ccccc1N1CCN(S(=O)(=O)c2ccc(Cl)s2)CC1)NO` [Example I-253, (E)-3-(2-(4-((5-chlorothiophen-2-yl)sulfonyl)piperazin-1-yl)phenyl)-N-hydroxyacrylamide], the IC50 was less than 1000 nM.

For `O=C(/C=C/c1ccccc1N1CCN(S(=O)(=O)c2cccc3cnccc23)CC1)NO` [Example I-254, (E)-N-hydroxy-3-(2-(4-(isoquinolin-5-ylsulfonyl)piperazin-1-yl)phenyl)acrylamide], the half-maximal inhibitory concentration (IC50) was less than 1000 nM.

For the compound `O=C(/C=C/c1ccccc1N1CCN(S(=O)(=O)C2CCOCC2)CC1)NO` [Example I-255, (E)-N-hydroxy-3-(2-(4-((tetrahydro-2H-pyran-4-yl)sulfonyl)piperazin-1-yl)phenyl)acrylamide], the 50% inhibitory concentration (IC50) was less than 1000 nM.

As for `COc1ccc(S(=O)(=O)N2CCN(c3ccccc3/C=C/C(=O)NO)CC2)cc1OC` [Example I-256, (E)-3-(2-(4-((3,4-dimethoxyphenyl)sulfonyl)piperazin-1-yl)phenyl)-N-hydroxyacrylamide], the half-inhibitory concentration (IC50) is less than 1000 nM.

As to `O=C(/C=C/c1ccccc1N1CCN(S(=O)(=O)Cc2cccc(F)c2)CC1)NO` [Example I-257, (E)-3-(2-(4-((3-fluorobenzyl)sulfonyl)piperazin-1-yl)phenyl)-N-hydroxyacrylamide], the concentration for half-maximal inhibition (IC50) was less than 1000 nM.

As for `Cn1cnc(S(=O)(=O)N2CCN(c3ccccc3/C=C/C(=O)NO)CC2)c1` [Example I-258, (E)-N-hydroxy-3-(2-(4-((1-methyl-1H-imidazol-4-yl)sulfonyl)piperazin-1-yl)phenyl)acrylamide], the 50% inhibitory concentration (IC50) was less than 1000 nM.

As to `O=C(/C=C/c1ccccc1N1CCN(S(=O)(=O)Cc2ccc(Cl)cc2F)CC1)NO` [Example I-259, (E)-3-(2-(4-((4-chloro-2-fluorobenzyl)sulfonyl)pi-perazin-1-yl)phenyl)-N-hydroxyacrylamide], the IC50 was less than 1000 nM.

As for `O=C(/C=C/c1ccccc1N1CCN(S(=O)(=O)C2CC2)CC1)NO` [Example I-260, (E)-3-(2-(4-(cyclopropylsulfonyl)piperazin-1-yl)phenyl)-N-hydroxyacrylamide], the IC50 is less than 1000 nM.

`CC(C)(C)OC(=O)N1CC(=O)N(c2ccccc2/C=C/C(=O)NO)C1` [Example I-261, tert-butyl (E)-3-(2-(3-(hydroxyamino)-3-oxoprop-1-en-1-yl)phenyl)-4-oxoimidazolidine-1-carboxylate]: the half-maximal inhibitory concentration (IC50) was less than 1000 nM.

Take `O=C(/C=C/c1ccccc1NC(=O)c1ccccc1CCc1ccccc1)NO` [Example I-267, (E)-N-(2-(3-(hydroxyamino)-3-oxoprop-1-en-1-yl)phenyl)-2-phenethylbenzamide]: the IC50 is less than 1000 nM.

Regarding `O=C(/C=C/c1ccccc1NC(=O)c1sc2ccccc2c1Cl)NO` [Example I-269, (E)-3-chloro-N-(2-(3-(hydroxyamino)-3-oxoprop-1-en-1-yl)phenyl)benzo[b]thiophene-2-carboxamide], the half-inhibitory concentration (IC50) was less than 1000 nM.

`Cc1oc(-c2ccccc2)cc1C(=O)Nc1ccccc1/C=C/C(=O)NO` [Example I-271, (E)-N-(2-(3-(hydroxyamino)-3-oxoprop-1-en-1-yl)phenyl)-2-methyl-5-phenylfuran-3-carboxamide]: the half-inhibitory concentration (IC50) was less than 1000 nM.

For the compound `Cc1oc(-c2ccc(Cl)cc2)cc1C(=O)Nc1ccccc1/C=C/C(=O)NO` [Example I-272, (E)-5-(4-chlorophenyl)-N-(2-(3-(hydroxyamino)-3-oxoprop-1-en-1-yl)phenyl)-2-methylfuran-3-carboxamide], the IC50 was less than 1000 nM.

In the case of `O=C(/C=C/c1ccccc1NC(=O)c1ccc(-n2cccc2)nc1)NO` [Example I-273, (E)-N-(2-(3-(hydroxyamino)-3-oxoprop-1-en-1-yl)phenyl)-6-(1H-pyrrol-1-yl)nicotinamide], the IC50 is less than 1000 nM.
